13 compounds from ChEMBL document CHEMBL6153028, “Understanding the synergistic sensitization of natural products and antibiotics: An effective strategy to combat MRSA” (2025) can be followed below.

What all share (type): functional
The test system of assay [1] is Staphylococcus aureus. The assay can be described thus: Synergistic antimicrobial activity against methicillin-resistant Staphylococcus aureus CCARM 3089 assessed as fractional inhibitory concentration index in presence of ciprofloxacin incubated for 24 hrs by checkerboard assay.
Assay [2] has as its system Staphylococcus aureus. The assay can be described thus: Synergistic antimicrobial activity against methicillin resistant Staphylococcus aureus 43300 assessed as fractional inhibitory concentration index incubated for 24 hrs in presence of Gentamicin by checkerboard assay.
In assay [3] the test system is Staphylococcus aureus. The assay can be described thus: Synergistic antimicrobial activity against methicillin-resistant Staphylococcus aureus CCARM 3089 assessed as fractional inhibitory concentration index in presence of pencillin incubated for 24 hrs by checkerboard assay.
Assay [4] has as its system Staphylococcus aureus. The experiment in a line: Synergistic antimicrobial activity against methicillin-resistant Staphylococcus aureus CCARM 3089 assessed as fractional inhibitory concentration index in presence of Chloramphenicol incubated for 24 hrs by checkerboard assay.
The subject of assay [5] is Staphylococcus aureus. The assay can be described thus: Synergistic antimicrobial activity against methicillin-resistant Staphylococcus aureus CCARM 3089 assessed as fractional inhibitory concentration index in presence of oxacillin incubated for 24 hrs by checkerboard assay.
Assay [6] relates to Staphylococcus aureus. The experiment in a line: Synergistic antibacterial activity against methicillin resistant Staphylococcus aureus assessed as fractional inhibitory concentration index in presence of ampicillin incubated for 24 hrs by checkerboard assay.
Assay [7] deals with Staphylococcus aureus. The assay can be described thus: Synergistic antibacterial activity against methicillin resistant Staphylococcus aureus assessed as fractional inhibitory concentration index in presence of oxacillin incubated for 24 hrs by checkerboard assay.
Assay [8] relates to Staphylococcus aureus. The assay can be described thus: Synergistic antibacterial activity against methicillin resistant Staphylococcus aureus assessed as fractional inhibitory concentration index in presence of penicillin by checkerboard assay.
For assay [9], the system named is Staphylococcus aureus. The assay can be described thus: Synergistic antibacterial activity against methicillin resistant Staphylococcus aureus assessed as fractional inhibitory concentration index in presence of gentamicin.
For assay [10], the system named is Staphylococcus aureus. The assay can be described thus: Synergistic antibacterial activity against methicillin resistant Staphylococcus aureus assessed as fractional inhibitory concentration index in presence of ciprofloxacin.
Assay [11] has as its system Staphylococcus aureus. The experiment in a line: Synergistic antibacterial activity against methicillin resistant Staphylococcus aureus assessed as fractional inhibitory concentration index in presence of norfloxacin. As to conditions: time 24 hrs.
The test system of assay [12] is Staphylococcus aureus. The experiment in a line: Synergistic antimicrobial activity against methicillin-resistant Staphylococcus aureus assessed as fractional inhibitory concentration index in presence of teicoplanin by checkerboard assay.
Assay [13] has as its system Staphylococcus aureus. The assay can be described thus: Synergistic antibacterial activity against methicillin resistant Staphylococcus aureus assessed as fractional inhibitory concentration index in presence of ceftriaxone.
In assay [14] the test system is Staphylococcus aureus. The assay can be described thus: Synergistic antibacterial activity against methicillin resistant Staphylococcus aureus assessed as fractional inhibitory concentration index in presence of ampicillin.
Assay [15] deals with Staphylococcus aureus. The assay can be described thus: Synergistic antimicrobial activity against methicillin-resistant Staphylococcus aureus assessed as fractional inhibitory concentration index in presence of chloramphenicol by checkerboard assay.
Assay [16] has as its system Staphylococcus aureus. The assay can be described thus: Synergistic antimicrobial activity against methicillin-resistant Staphylococcus aureus assessed as fractional inhibitory concentration index in presence of gentamicin by checkerboard assay.
Assay [17] has as its system Staphylococcus aureus. The assay can be described thus: Synergistic antimicrobial activity against methicillin-resistant Staphylococcus aureus assessed as fractional inhibitory concentration index in presence of minocycline by checkerboard assay.
Assay [18] relates to Staphylococcus aureus. The experiment in a line: Synergistic antimicrobial activity against methicillin-resistant Staphylococcus aureus assessed as fractional inhibitory concentration index in presence of fosfomycin by checkerboard assay.
In assay [19] the test system is Staphylococcus aureus. The assay can be described thus: Synergistic antibacterial activity against methicillin resistant Staphylococcus aureus assessed as fractional inhibitory concentration index in presence of erythromycin by checkerboard assay.
Assay [20] has as its system Staphylococcus aureus. The experiment in a line: Synergistic antimicrobial activity against methicillin resistant Staphylococcus aureus assessed as fractional inhibitory concentration index incubated for 24 hrs in presence of ciprofloxacin by checkerboard assay.
For assay [21], the system named is Staphylococcus aureus. The assay can be described thus: Synergistic antimicrobial activity against methicillin-resistant Staphylococcus aureus assessed as fractional inhibitory concentration index in presence of ciprofloxacin incubated for 24 hrs by checkerboard assay.
Assay [22] has as its system Staphylococcus aureus. The assay can be described thus: Synergistic antimicrobial activity against methicillin-resistant Staphylococcus aureus assessed as fractional inhibitory concentration index in presence of cefixime incubated for 24 hrs by checkerboard assay.
Assay [23] has as its system Staphylococcus aureus. The assay can be described thus: Synergistic antimicrobial activity against methicillin-resistant Staphylococcus aureus assessed as fractional inhibitory concentration index in presence of penicillin G incubated for 24 hrs by checkerboard assay.
The test system of assay [24] is Staphylococcus aureus. The experiment in a line: Synergistic antimicrobial activity against methicillin-resistant Staphylococcus aureus assessed as fractional inhibitory concentration index in presence of amoxicillin incubated for 24 hrs by checkerboard assay.
For assay [25], the system named is Staphylococcus aureus. The assay can be described thus: Synergistic antimicrobial activity against methicillin-resistant Staphylococcus aureus assessed as fractional inhibitory concentration index in presence of ampicillin incubated for 24 hrs by checkerboard assay.
In assay [26] the test system is Staphylococcus aureus. The experiment in a line: Synergistic antimicrobial activity against methicillin-resistant Staphylococcus aureus assessed as fractional inhibitory concentration index in presence of Ceftriaxone incubated for 24 hrs by checkerboard assay.

Regarding `COc1cc(CNC(=O)CCCC/C=C/C(C)C)ccc1O` [CAPSAICIN], the “fractional inhibitory concentration index (FICI)” value in the assay with Staphylococcus aureus [1] is on record as 0.18.
Turning to `O=C(/C=C/C=C/c1ccc2c(c1)OCO2)N1CCCCC1` [PIPERINE], the “fractional inhibitory concentration index (FICI)” value with Staphylococcus aureus [2] is 0.5.
On to `Oc1cc(O)cc(Oc2c(O)cc(O)c3c2Oc2c(O)cc4oc5c(Oc6cc(O)cc(O)c6)c(O)cc(O)c5c4c2O3)c1` [PHLOROFUCOFUROECKOL A], for which the “fractional inhibitory concentration index (FICI)” value with Staphylococcus aureus [3] was found to be 0.393.
Regarding `COc1c(C)c(O)c(CC=C(C)C)c(O)c1Cc1c(O)c(C(C)=O)c(O)c(CC=C(C)C)c1OC`, the “fractional inhibitory concentration index (FICI)” value in the assay with Staphylococcus aureus [4] stood at 0.393; in the assay with Staphylococcus aureus [5] it was 0.008.
As to `O=C1C[C@@H](c2ccc(O)cc2)Oc2cc(O)ccc21` [LIQUIRTIGENIN], the “fractional inhibitory concentration index (FICI)” value is listed as 0.375 in the assay with Staphylococcus aureus [6], 0.372 in the assay with Staphylococcus aureus [7] and 0.375 in the assay on Staphylococcus aureus [8].
For `CC(C)=CCc1c(O)cc(O)c2c1O[C@H](c1ccc(O)cc1)CC2=O`, the “fractional inhibitory concentration index (FICI)” value is given as 0.25 with Staphylococcus aureus [9], 0.5 with Staphylococcus aureus [10], 0.31 with Staphylococcus aureus [7] and 0.5 in the assay on Staphylococcus aureus [11].
On to `COc1cc(OC)c2ccc(=O)oc2c1OCC=C(C)C` [ARTANIN], for which, in the assay with Staphylococcus aureus [12], the “fractional inhibitory concentration index (FICI)” value is on record as less than 0.5.
Turning to `O=c1cc(-c2ccc(O)cc2)oc2cc(O)cc(O)c12` [APIGENIN], the “fractional inhibitory concentration index (FICI)” value with Staphylococcus aureus [13] and with Staphylococcus aureus [14] was 0.18 throughout.
For the compound `COc1cc(OC/C=C(\C)CCC=C(C)C)c2ccc(=O)oc2c1`, the “fractional inhibitory concentration index (FICI)” value with Staphylococcus aureus [15], with Staphylococcus aureus [16], in the assay on Staphylococcus aureus [17] and in the assay on Staphylococcus aureus [18] was less than 0.5 in each case.
On to `COc1ccc(-c2cc(=O)c3c(O)cc(O)cc3o2)cc1O` [DIOSMETIN], for which the “fractional inhibitory concentration index (FICI)” value in the assay on Staphylococcus aureus [19] is given as 0.28.
Regarding `COc1cc(/C=C/C(=O)CC(=O)/C=C/c2ccc(O)c(OC)c2)ccc1O` [CURCUMIN], the “fractional inhibitory concentration index (FICI)” value in the assay on Staphylococcus aureus [20] turned out to be 0.25.
Regarding `Oc1cc(O)cc(/C=C/c2ccc(O)c(O)c2)c1` [PICEATANNOL], the “fractional inhibitory concentration index (FICI)” value with Staphylococcus aureus [21] is given as 0.375.
`O=c1cc(-c2ccccc2)c2cc(O)c(O)cc2o1`: the “fractional inhibitory concentration index (FICI)” value in the assay on Staphylococcus aureus [22], in the assay on Staphylococcus aureus [23], with Staphylococcus aureus [24], with Staphylococcus aureus [25] and with Staphylococcus aureus [26] was less than 0.5 throughout.
